From patent publication US20060233705A1, “Diagnosis by determination of hyperactivity or increased expression of members of cell signaling pathways” (priority 2005, published 2006)

Assays:
[1] = test system: members of the MAPK and GPCR pathways; test: ELISA of venous blood for MAPK and GPCR pathway members in NNK-treated hamsters; format: in vivo, Syrian Golden Hamsters; settings: blood one week after NNK 2.5 mg/100 g s.c. three times weekly for 10 weeks
Procedure: Syrian Golden Hamsters are injected subcutaneously with the tobacco-specific carcinogenic nitrosamine 4-(methylnitrosamino)-1-(3-pyridyl)-1-butanone (NNK) at a dosage of 2.5 mg/100 g bodyweight three times weekly for 10 weeks. […] Control hamsters are untreated. One week after the final NNK injection, approximately 250 microliters of venous blood is collected from the hamsters.
Antibodies that bind to phosphorylated or unphosphorylated members of the MAPK and GPCR pathways, including Raf, Ras, MEK, ERK, adenylate cyclase, cAMP, PKA, CREB, and PKC are purchased from commercial sources, including EMD Biosciences (San Diego, Calif.) (Raf, ERK), BD Biosciences Pharmingen (San Diego, Calif.) (Raf), Cell Signaling Technology (Beverly, Mass.) (Ras), Abgent (San Diego, Calif.) ([…]), GenWay Biotech Inc. (San Diego, Calif.) (adenylate cyclase), Abcam, Inc. (Cambridge, Mass.) (cAMP, PKA, PKC, Raf), and Upstate (Charlottesville, Va.) (CREB).
Paired antibodies for each of the above member of the MAPK and GPCR pathways are utilized as coating antibody and detection antibody in formulating an ELISA (Enzyme-Linked Immunosorbent Assay) for each of the members. […]
Briefly, a first antibody that binds to a member of the MAPK or GPCR pathway is bound to the wells on a microtiter plate. […] Then a stop solution is added to the wells and the color intensity of each well is measured using an ELISA plate reader.

[2] = test system: human pulmonary adenocarcinoma cells; settings: in vitro; by increasing the release of arachidonic acid; cited from earlier work
[3] = test system: pulmonary adenocarcinomas; settings: animal model; cited from earlier work
lung tumors = settings: 2.5 mg/100 g s.c. three times weekly for 20 weeks; within 52 weeks after start of injections; cited from earlier work

Structure (SMILES) | ELISA color intensity versus control hamsters [1] | proliferation of human pulmonary adenocarcinoma cells [2] | induction of pulmonary adenocarcinomas [3] | lung tumors developed (lung tumors)
CN(CCCC(=O)c1cccnc1)N=O [NNK, 4-(methylnitrosamino)-1-(3-pyridyl)-1-butanone] | significantly higher | stimulate the proliferation | reproducibly induced pulmonary adenocarcinomas | about 10 lung tumors/hamster
CC(C)NCC(O)c1ccc(O)c(O)c1 (centres unmarked) [isoproterenol] | – | stimulate the proliferation | – | –
